Common to all, as to assay type: cell-based
The target in assay [1] is T1, AHR (Homo sapiens, UniProt P35869).
T1 sequence (P35869 11-848): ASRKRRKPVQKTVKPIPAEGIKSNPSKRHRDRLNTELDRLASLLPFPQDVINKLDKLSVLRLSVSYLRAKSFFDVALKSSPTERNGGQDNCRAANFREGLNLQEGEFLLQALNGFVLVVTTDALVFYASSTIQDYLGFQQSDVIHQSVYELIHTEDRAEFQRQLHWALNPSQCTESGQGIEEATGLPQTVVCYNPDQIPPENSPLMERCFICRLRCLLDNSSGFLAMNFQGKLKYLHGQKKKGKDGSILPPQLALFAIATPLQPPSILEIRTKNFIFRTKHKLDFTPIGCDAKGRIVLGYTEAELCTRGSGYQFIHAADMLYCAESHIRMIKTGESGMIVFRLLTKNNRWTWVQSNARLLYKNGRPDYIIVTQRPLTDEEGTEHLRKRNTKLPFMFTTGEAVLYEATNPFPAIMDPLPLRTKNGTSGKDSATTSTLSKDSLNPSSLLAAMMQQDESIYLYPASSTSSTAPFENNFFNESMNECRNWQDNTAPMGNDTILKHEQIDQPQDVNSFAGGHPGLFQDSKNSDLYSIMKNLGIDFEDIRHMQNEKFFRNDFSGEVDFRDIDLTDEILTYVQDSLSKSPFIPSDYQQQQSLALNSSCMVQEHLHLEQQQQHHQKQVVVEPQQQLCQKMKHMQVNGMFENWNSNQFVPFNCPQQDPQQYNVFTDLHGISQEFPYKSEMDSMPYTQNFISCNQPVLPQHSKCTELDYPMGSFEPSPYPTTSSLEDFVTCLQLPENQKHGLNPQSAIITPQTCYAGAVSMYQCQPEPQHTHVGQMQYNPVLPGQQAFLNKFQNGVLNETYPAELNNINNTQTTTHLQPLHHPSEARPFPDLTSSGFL
Briefly: In vitro assay 3: AHR-regulated CYP1A1 expression in human cell line (U937, qPCR, KA stimulation). The settings on record: U937 cells, 200 uM KA, 6 hours, CYP1A1 expression by qPCR; read-out: Assay 3: Hum CYP1A1 Antagonism IC50. The procedure:
In Vitro Assay 3: AHR-Regulated CYP1A1 Expression in Human Cell Line
To assess the AHR inhibitory activity of the substances described in this application, the ability thereof to antagonise ligand-induced AHR gene regulation in a dose-dependent manner was quantified. For this purpose, quantitative PCR analysis was used to determine expression of the AHR-regulated gene CYP1A1 in a human monocytic U937 cell line upon stimulation with 200 uM KA in the presence and absence of AHR inhibitor. […] CYP1A1 expression was induced with 200 uM KA (positive control) in the presence or absence of the substances for 6 hours. Human U937 cells were typically incubated with eight different concentrations of the substances (1 nM, 3 nM, 10 nM, 30 nM, 100 nM, 300 nM, 1 uM and 3 uM) and analyzed in duplicate on the same microtitre plate. […] Unstimulated cells were used as the negative control. Taqman probes for human CYP1A1 (Hs01054797_g1) and human HPRT (Hs02800695_m1) were used to analyze fold expression of CYP1A1 of HPRT. Quantitation was performed on a Taqman SDS7900HT.

For assay [2], the target named is T1, AHR. Briefly: In vitro assay 1: antagonism in human cell line (transactivation assay, U87 cells prestimulated with kynurenic acid, DRE firefly luciferase reporter). On the set-up: host or cells: U87 glioblastoma cells, stably transfected with DRE firefly luciferase and renilla reporter constructs. The settings on record: 150 uM kynurenic acid, 20 hours, read-out: Assay 1: AHR-luc Hum Antagonism IC50. In a few lines:
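Antagonism measured after kynurenic acid prestimulation in U87 cells that express AHR endogenously and stably harbor a firefly luciferase gene under DRE control plus a constitutive renilla construct. Positive and negative controls served for normalization.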

Assay [3] deals with T1, AHR. Briefly: In vitro assay 2: agonism in human cell line (transactivation assay, U87 cells, DRE firefly luciferase reporter). On the set-up: host or cells: U87 glioblastoma cells, stably transfected with DRE firefly luciferase and renilla reporter constructs. The settings on record: no kynurenic acid, 20 hours, read-out: Assay 2: AHR-luc Hum Agonism IC50. In a few lines:
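Agonist readout: DRE firefly luciferase, with constitutive renilla reporter, in stably transfected U87 cells expressing AHR endogenously. Normalization used positive control (300 uM kynurenic acid) and negative control.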

Among the data in patent publication US12522594B2, “2-heteroaryl-3-oxo-2,3-dihydropyridazine-4-carboxamides for the treatment of cancer” (Deutsches Krebsforschungszentrum, priority 2017, dated 2026) are IC50 values, retold here.

One may read the IC50 as the concentration that gives 50% inhibition.

Some results are limits rather than exact numbers.

In the case of `Cn1cc(-n2nc(-c3ccc(Cl)cc3)cc(C(=O)N[C@H]3CCC[C@H]3O)c2=O)cn1` [Example 50, 6-(4-Chlorophenyl)-N-[(1S,2R)-2-hydroxycyclopentyl]-2-(1-methyl-1H-pyrazol-4-yl)-3-oxo-2,3-dihydropyridazine-4-carboxamide], the IC50 in assay [1] is 6.74 nM; in assay [2], 8.39 nM; in assay [3], above 20000 nM.
In the case of `O=C(N[C@H]1CCCC(F)(F)[C@@H]1O)c1cc(-c2ccc(Cl)cc2)nn(-c2cccnc2)c1=O` (single isomer, unassigned; enantiomer 1) [Example 144, 6-(4-Chlorophenyl)-N-[(trans)-3,3-difluoro-2-hydroxycyclohexyl]-3-oxo-2-(pyridin-3-yl)-2,3-dihydropyridazine-4-carboxamide, Enantiomer 1], the half-maximal inhibitory concentration (IC50) in assay [2] was 31.4 nM; in assay [3], above 20000 nM.
For `Cn1cc(-n2nc(-c3ccc(OC(F)(F)F)cc3)cc(C(=O)N[C@@H]3COC[C@@H]3O)c2=O)cn1` (single isomer, unassigned; enantiomer 2) [Example 57, N-[(cis)-4-Hydroxytetrahydrofuran-3-yl]-2-(1-methyl-1H-pyrazol-4-yl)-3-oxo-6-[4-(trifluoromethoxy)phenyl]-2,3-dihydropyridazine-4-carboxamide, Enantiomer 2], the concentration for half-maximal inhibition (IC50) in assay [2] is 7.48 nM; in assay [3], above 20000 nM.
Turning to `O=C(N[C@@H]1CC[C@@H]1O)c1cc(-c2ccc(C(F)(F)F)cc2)nn(-c2cccnc2)c1=O` (relative stereo) [Example 224, N-cis-2- Hydroxycyclobutyl-3-oxo-2-(pyridin-3-yl)-6-[4-(trifluoromethyl)phenyl]-2,3-dihydropyridazine-4-carboxamide], the results for the IC50 in assay [2] and in assay [3] were 4.37 nM and above 20000 nM, respectively.
For `O=C(N[C@H]1COC[C@H]1O)c1cc(-c2ccc(C(F)F)nc2)nn(-c2cccnc2)c1=O` (single isomer, unassigned) [Example 183, 6-[6-(Difluoromethyl)pyridin-3-yl]-N-[(cis)-4-hydroxytetrahydrofuran-3-yl]-3-oxo-2-(pyridin-3-yl)-2,3-dihydropyridazine-4-carboxamide], the IC50 in assay [2] is 1970 nM; in assay [3], above 20000 nM.
With `Cn1cc(-n2nc(-c3ccc(C(F)F)cc3)cc(C(=O)N[C@@H]3COC[C@@H]3O)c2=O)cn1` (relative stereo) [Example 60, 6-[4-(Difluoromethyl)phenyl]-N-[(cis)-4-hydroxytetrahydrofuran-3-yl]-2-(1-methyl-1H-pyrazol-4-yl)-3-oxo-2,3-dihydropyridazine-4-carboxamide], the 50% inhibitory concentration (IC50) in assay [2] was 21.8 nM; in assay [3], above 20000 nM.
For the compound `O=C(NCC(O)C(F)F)c1cc(-c2ccc(C(F)(F)F)cc2)nn(-c2cccnc2)c1=O` (racemic) [Example 101, N-[(2RS)-3,3-Difluoro-2-hydroxypropyl]-3-oxo-2-(pyridin-3-yl)-6-[4-(trifluoromethyl)phenyl]-2,3-dihydropyridazine-4-carboxamide], the IC50 in assay [2] was 9.54 nM; in assay [3] it was above 20000 nM.
For `C[C@@H](CO)NC(=O)c1cc(-c2ccc(N(C)C)cc2)nn(-c2cccnc2)c1=O` [Example 191, 6-[4-(Dimethylamino)phenyl]-N-[(2S)-1-hydroxypropan-2-yl]-3-oxo-2-(pyridin-3-yl)-2,3-dihydropyridazine-4-carboxamide], the values for the concentration for half-maximal inhibition (IC50) in assay [2] and in assay [3] were 3.35 nM and above 20000 nM, respectively.
With `CC(C)(O)CNC(=O)c1cc(-c2ccc(OC(F)F)cc2)nn(-c2cccnc2)c1=O` [Example 331, 6-[4-(Difluoromethoxy)phenyl]-N-(2-hydroxy-2-methylpropyl)-3-oxo-2-(pyridin-3-yl)-2,3-dihydropyridazine-4-carboxamide], the IC50 in assay [2] is 234 nM; in assay [3], above 20000 nM.
For `Cc1ccc(-c2cc(C(=O)N[C@H](C)CO)c(=O)n(-c3cnn(C)c3)n2)cc1` [Example 9, N-[(2R)-1-Hydroxypropan-2-yl]-6-(4-methylphenyl)-2-(1-methyl-1H-pyrazol-4-yl)-3-oxo-2,3-dihydropyridazine-4-carboxamide] the same measures were 164 nM and above 20000 nM.
Regarding `Cn1cc(-n2nc(-c3ccc(C(F)F)nc3)cc(C(=O)N[C@H]3CCCC[C@H]3O)c2=O)cn1` [Example 54, 6-[6-(Difluoromethyl)pyridin-3-yl]-N-[(1S,2R)-2-hydroxycyclohexyl]-2-(1-methyl-1H-pyrazol-4-yl)-3-oxo-2,3-dihydropyridazine-4-carboxamide], the IC50 was 14.3 nM in assay [2] and above 20000 nM in assay [3].
Consider `O=C(N[C@H](CO)C1CC1)c1cc(-c2ccc(Cl)cc2)nn(-c2cncnc2)c1=O` [Example 273, 6-(4-Chlorophenyl)-N-[(1S)-1-cyclopropyl-2-hydroxyethyl]-3-oxo-2-(pyrimidin-5-yl)-2,3-dihydropyridazine-4-carboxamide], for which the 50% inhibitory concentration (IC50) in assay [2] was 101 nM; in assay [3], above 20000 nM.
Take `O=C(N[C@H]1COC[C@H]1O)c1cc(-c2ccc(OC(F)(F)F)cc2)nn(-c2cccnc2)c1=O` (relative stereo) [Example 157, N-[(cis)-4-Hydroxytetrahydrofuran-3-yl]-3-oxo-2-(pyridin-3-yl)-6-[4-(trifluoromethoxy)phenyl]-2,3-dihydropyridazine-4-carboxamide]: the concentration for half-maximal inhibition (IC50) was 39.3 nM in assay [2] and above 20000 nM in assay [3].
For `Cc1cc(-n2nc(-c3ccc(Cl)cc3)cc(C(=O)N[C@@H](C)CO)c2=O)cs1` [Example 242, 6-(4-Chlorophenyl)-N-[(2S)-1-hydroxypropan-2-yl]-2-(5-methyl-3-thienyl)-3-oxo-2,3-dihydropyridazine-4-carboxamide] the same measures were 11.1 nM and above 20000 nM.
For `CC(C)(O)CNC(=O)c1cc(-c2ccc(C(F)(F)F)cc2)nn(-c2cnsc2)c1=O` [Example 208, N-(2-Hydroxy-2-methylpropyl)-3-oxo-2-(1,2-thiazol-4-yl)-6-[4-(trifluoromethyl)phenyl]-2,3-dihydropyridazine-4-carboxamide], in that order: 1.22 nM and above 20000 nM.
Turning to `Cn1cc(-n2nc(-c3ccc(Cl)cc3)cc(C(=O)NC[C@@H](O)CO)c2=O)cn1` [Example 28, 6-(4-Chlorophenyl)-N-[(2R)-2,3-dihydroxypropyl]-2-(1-methyl-1H-pyrazol-4-yl)-3-oxo-2,3-dihydropyridazine-4-carboxamide], the values for the half-inhibitory concentration (IC50) in assay [2] and in assay [3] were 293 nM and above 20000 nM, respectively.
For `C[C@@H](NC(=O)c1cc(-c2ccc(Cl)cc2)nn(-c2cncnc2)c1=O)C(C)(C)O` [Example 265, 6-(4-Chlorophenyl)-N-[(2R)-3-hydroxy-3-methylbutan-2-yl]-3-oxo-2-(pyrimidin-5-yl)-2,3-dihydropyridazine-4-carboxamide], the results for the IC50 in assay [2] and in assay [3] were 48.8 nM and above 20000 nM, respectively.
`CC(C)(O)C(NC(=O)c1cc(-c2ccc(C(F)(F)F)cc2)nn(-c2cccnc2)c1=O)C(F)(F)F` (single isomer, unassigned; (+)) [Example 197, (+)-3-Oxo-2-(pyridin-3-yl)-N-(1,1,1-trifluoro-3-hydroxy-3-methylbutan-2-yl)-6-[4-(trifluoromethyl)phenyl]-2,3-dihydropyridazine-4-carboxamide]: the IC50 was 0.502 nM in assay [2] and above 20000 nM in assay [3].
